The test deals with 3T3 L1 fibroblasts. Description: Glucose transport activity assay (14C-2-deoxy-D-glucose uptake). It counts as cell-based. The settings on record: Mus musculus. As to the method: Glucose Transport Activity Assay.
Stimulation of the insulin receptor leads to the transport of glucose from the blood into cells, thus modulating blood glucose levels. 3T3 L1 fibroblasts (ATCC) were grown in Dulbecco's modified Eagle's medium (DMEM) with 10% fetal bovine serum (FBS). The cells were plated at a density of 3×10^4 cells/well in 24-well plates. Two days after confluence was reached, the cells were treated for 3 days with 0.5 mM isobutylmethylxanthine (IBMX), 1 μM dexamethasone, and 1.7 μM insulin. The cells were then transferred to DMEM with 10% FBS and supplemented with 1.7μM insulin for 2 more days. The cells were maintained in DMEM with 10% FBS for an additional 4 days. Finally the cells were serum-starved overnight in 0.1% bovine serum albumin (BSA) in DMEM.
The following day, the medium was replaced with 150 mM NaCl, 1.7 mM KCl, 0.9 mM CaCl2, K2HPO4 (pH 7.4) to which were added either the experimental compounds or their vehicle (DMSO). Insulin or its vehicle (0.01% BSA) was diluted in the assay buffer (containing test compound or vehicle, respectively) to final concentration of […]. After incubation for 30 min at 37° C., 5 μCi/ml ^14C-2-deoxy-D-glucose was added, and the incubation was continued for additional 30 min at 37° C. The cells were then washed 3 times with ice-cold PBS/20 mM glucose and lysed in 250 μl of lysis buffer (50 mM HEPES pH 7.6, 1% Triton X-100) for 30 min at room temperature. Radioactivity in the lysate was quantified by scintillation counting.
Once ^14C-2-deoxy-D-glucose is transported into the cell, it is not released. Glucose transport is, therefore, proportional to the amount of radioactivity in the lysate. The concentration of compound necessary to produce an increase in glucose transport to greater than 150% of the vehicle control (generally representing the sum of the standard deviation of the vehicle control plus the largest standard deviation of a test sample) was recorded as the EC (effective concentration). Shown in FIG. 3 is glucose uptake by cells at various concentrations when treated with Compound 13 and Compound 15.

Setting [1] is: EC (effective concentration) for increase in glucose transport, 14C-2-deoxy-D-glucose, 3T3 L1 cells, read-out: Concentration (μM) to reach >150% activity of vehicle control.
[2] abbreviates: 3T3-L1, read-out: Concentration (μM) to reach >150% activity of vehicle control.

Like-named read-outs stand apart in the source and are kept apart here.

`O=C(Nc1ccc2c(O)cc(S(=O)(=O)Nc3ccc(-c4nnn[nH]4)cc3)cc2c1)Nc1ccc2c(O)cc(S(=O)(=O)Nc3ccc(-c4nnn[nH]4)cc3)cc2c1` [Compound 69, N-(5-hydroxy-7-{[(4-(1H-1,2,3,4-tetraazol-5-yl)phenyl)amino]sulfonyl}(2-naphthyl))[(5-hydroxy-7-{[(4-(1H-1,2,3,4-tetraazol-5-yl)phenyl)amino]sulfonyl}(2-naphthyl))amino]carboxamide]: under setting [1], the EC (150% of vehicle control) was more than 32 µM.

For `CCOP(=O)(O)c1cccc(NS(=O)(=O)c2ccc3ccc(NC(=O)Nc4ccc5ccc(S(=O)(=O)Nc6cccc(P(=O)(O)OCC)c6)cc5c4)cc3c2)c1` [Compound 71, N-[7-({[3-(ethoxy(hydroxyphosphoryl))phenyl]amino}sulfonyl)(2-naphthyl)]{[7-({[3-(ethoxy(hydroxyphosphoryl))phenyl]amino}sulfonyl)(2-naphthyl)]amino}carboxamide], under setting [2], the EC (150% of vehicle control) amounted to 3.2 µM.

In the case of `COC(=O)[C@H](Cc1ccc(O)cc1)NS(=O)(=O)c1ccc2ccc(NC(=O)Nc3ccc4ccc(S(=O)(=O)O)cc4c3)cc2c1` [Compound 72, 7-({[7-({[(1S)-2-(4-hydroxyphenyl)-1-(methoxycarbonyl)ethyl]amino}sulfonyl)-2-naphthyl]amino}carbonylamino)naphthalene-2-sulfonic acid], under setting [1], the EC (150% of vehicle control) was determined as 3.2 µM.

Consider `O=C(Nc1ccc2ccc(S(=O)(=O)O)cc2c1)Nc1ccc2ccc(S(=O)(=O)N[C@@H](Cc3ccc(O)cc3)C(=O)O)cc2c1` [Compound 73, (2S)-3-(4-hydroxyphenyl)-2-{[(7-{[N-(7-sulfo(2-naphthyl))carbamoyl]amino}(2-naphthyl))sulfonyl]amino}propanoic acid], for which, under setting [1], the EC (150% of vehicle control) stood at 10 µM.

Turning to `COC(=O)[C@H](Cc1ccc(O)cc1)NS(=O)(=O)c1ccc2ccc(NC(=O)Nc3ccc4ccc(S(=O)(=O)N[C@@H](Cc5ccc(O)cc5)C(=O)OC)cc4c3)cc2c1` [Compound 74, methyl (2S)-2-({[7-({N-[7-({[(1S)-2-(4-hydroxyphenyl)-1-(methoxycarbonyl)ethyl]amino}sulfonyl)(2-naphthyl)]carbamoyl}amino)(2-naphthyl)]sulfonyl}amino)-3-(4-hydroxyphenyl)propanoate], under setting [1], the EC (150% of vehicle control) is 3.2 µM.

Consider `O=C(Nc1ccc2ccc(S(=O)(=O)N[C@@H](Cc3ccc(O)cc3)C(=O)O)cc2c1)Nc1ccc2ccc(S(=O)(=O)N[C@@H](Cc3ccc(O)cc3)C(=O)O)cc2c1` [Compound 75, (2S)-2-({[7-({N-[7-({[(1S)-1-carboxy-2-(4-hydroxyphenyl)ethyl]amino}sulfonyl)(2-naphthyl)]carbamoyl}amino)(2-naphthyl)]sulfonyl}amino)-3-(4-hydroxyphenyl)propanoic acid], for which the EC (150% of vehicle control) under setting [1] stood at 3.2 µM.

Take `O=C(Nc1ccc2ccc(S(=O)(=O)O)cc2c1)Nc1ccc2ccc(S(=O)(=O)Nc3ncccn3)cc2c1` [Compound 78, 7-[({7-[(pyrimidin-2-ylamino)sulfonyl]-2-naphthyl}amino)carbonylamino]naphthalene-2-sulfonic acid]: the EC (150% of vehicle control) under setting [1] is 10 µM.

Regarding `O=C(Nc1ccc2ccc(S(=O)(=O)Nc3ncccn3)cc2c1)Nc1ccc2ccc(S(=O)(=O)Nc3ncccn3)cc2c1` [Compound 79, N-{7-[(pyrimidin-2-ylamino)sulfonyl](2-naphthyl)}({7-[(pyrimidin-2-ylamino)sulfonyl](2-naphthyl)}amino)carboxamide], the EC (150% of vehicle control) under setting [1] stood at 10 µM.

With `O=C(Nc1ccc2ccc(S(=O)(=O)Nc3cnccn3)cc2c1)Nc1ccc2ccc(S(=O)(=O)Nc3cnccn3)cc2c1` [Compound 80, N-{7-[(pyrazin-2-ylamino)sulfonyl](2-naphthyl)}({7-[(pyrazin-2-ylamino)sulfonyl](2-naphthyl)}amino)carboxamide], the EC (150% of vehicle control) under setting [1] came out at 3.2 µM.

As to `O=C(Nc1ccc2ccc(S(=O)(=O)Nc3cccc(O)c3)cc2c1)Nc1ccc2ccc(S(=O)(=O)Nc3cccc(O)c3)cc2c1` [Compound 81, N-(7-{[(3-hydroxyphenyl)amino]sulfonyl}(2-naphthyl))[(7-{[(3-hydroxyphenyl)amino]sulfonyl}(2-naphthyl))amino]carboxamide], the EC (150% of vehicle control) under setting [1] was found to be 3.2 µM.

Regarding `O=C(Nc1ccc2c(O)cc(S(=O)(=O)Nc3cccc(CO)c3)cc2c1)Nc1ccc2c(O)cc(S(=O)(=O)Nc3cccc(CO)c3)cc2c1` [Compound 82, N-[5-hydroxy-7-({[3-(hydroxymethyl)phenyl]amino}sulfonyl)(2-naphthyl)]{[5-hydroxy-7-({[3-(hydroxymethyl)phenyl]amino}sulfonyl)(2-naphthyl)]amino}carboxamide], the EC (150% of vehicle control) under setting [1] was 3.2 µM.

For the molecule `N#Cc1cccc(NS(=O)(=O)c2ccc3ccc(NC(=O)Nc4ccc5ccc(S(=O)(=O)Nc6cccc(C#N)c6)cc5c4)cc3c2)c1` [Compound 83, N-(7-{[(3-cyanophenyl)amino]sulfonyl}(2-naphthyl))[(7-{[(3-cyanophenyl)amino]sulfonyl}(2-naphthyl))amino]carboxamide], the EC (150% of vehicle control) under setting [1] was 3.2 µM.

In the case of `O=C(Nc1ccc2ccc(S(=O)(=O)Nc3cccc([N+](=O)[O-])c3)cc2c1)Nc1ccc2ccc(S(=O)(=O)Nc3cccc([N+](=O)[O-])c3)cc2c1` [Compound 84, N-(7-{[(3-nitrophenyl)amino]sulfonyl}(2-naphthyl))[(7-{[(3-nitrophenyl)amino]sulfonyl}(2-naphthyl))amino]carboxamide], the EC (150% of vehicle control) under setting [2] worked out at 3.2 µM.

Take `O=C(Nc1ccc2ccc(S(=O)(=O)Nc3ccc(Cl)c(CO)c3)cc2c1)Nc1ccc2ccc(S(=O)(=O)Nc3ccc(Cl)c(CO)c3)cc2c1` [Compound 85, N-[7-({[4-chloro-3-(hydroxymethyl)phenyl]amino}sulfonyl)(2-naphthyl)]{[7-({[4-chloro-3-(hydroxymethyl)phenyl]amino}sulfonyl)(2-naphthyl)]amino}carboxamide]: the EC (150% of vehicle control) under setting [1] was determined as 32 µM.

Take `O=C(Nc1ccc2c(O)cc(S(=O)(=O)Nc3cccc(C(F)(F)F)c3)cc2c1)Nc1ccc2c(O)cc(S(=O)(=O)Nc3cccc(C(F)(F)F)c3)cc2c1` [Compound 88, N-[5-hydroxy-7-({[3-(trifluoromethyl)phenyl]amino}sulfonyl)(2-naphthyl)]{[5-hydroxy-7-({[3-(trifluoromethyl)phenyl]amino}sulfonyl)(2-naphthyl)]amino}carboxamide]: under setting [1], the EC (150% of vehicle control) was more than 32 µM.

Take `O=C(Nc1ccc2ccc(S(=O)(=O)O)cc2c1)Nc1ccc2ccc(S(=O)(=O)Nc3ccc(Cl)c(S(=O)(=O)O)c3)cc2c1` [Compound 90, 7-{[(7-{[(4-chloro-3-sulfophenyl)amino]sulfonyl}-2-naphthyl)amino]carbonylamino}naphthalene-2-sulfonic acid]: under setting [1], the EC (150% of vehicle control) was determined as 3.2 µM.

In the case of `O=C(Nc1ccc2ccc(S(=O)(=O)Nc3ccc(Cl)c(S(=O)(=O)O)c3)cc2c1)Nc1ccc2ccc(S(=O)(=O)Nc3ccc(Cl)c(S(=O)(=O)O)c3)cc2c1` [Compound 91, 2-chloro-5-{[(7-{[(7-{[(4-chloro-3-sulfophenyl)amino]sulfonyl}(2-naphthyl))amino]carbonylamino}(2-naphthyl))sulfonyl]amino}benzenesulfonic acid], under setting [1], the EC (150% of vehicle control) is 3.2 µM.
